Where two headings read alike, the source gives them in different places. Where a SMILES comes first, the peptide text is derived from it. Where no end group is shown, it is not given here. The star is where a group is joined. DOTA = O=C(O)CN1CCN(CC(=O)O)CCN(CC(=O)*)CCN(CC(=O)O)CC1
How the values were obtained:
[1] = test system: human prostate carcinoma PC-3 cells; settings: for Incubation time to maximal radioligand binding / binding saturation: ^111In- or ^125I-labeled peptide, medium without FCS, gamma-counter; for Binding as % of the native molecule (DUP-1) capacity: ^125I-labeled
Procedure: Direct radiolabeling with ^125I was performed on the tyrosine moiety using the chloramine-T method. A 10^−3 M aqueous solution of the respective peptide (5–25 µL, 5–25 nmol) was added to 0.25 M phosphate buffer (25 µL, pH 7.5). A radioactivity amount of 1–10 MBq ^125I- or ^131I- was added to this mixture and vortexed for 30 sec. The labeling reaction was quenched by adding 10 µL of a saturated aqueous methionine solution. The radiolabeled peptide was purified by HPLC on a Lichrosorb RP-select B 5 µm, 250 × 4 mm column using a linear solvent gradient system.
Radiolabeling was performed by complexation with ^111In-chloride. One microliter of a 10^−3 M solution of DOTA-Lys-DUP-1 in 50% dimethyl sulfoxide in water was mixed with sodium acetate buffer (25 µL, pH 5), and 10 MBq ^111InCl3 (PerkinElmer, Rodgau) was added. The solution was heated at 95 °C for 25 min. Quality control was performed by HPLC showing a radiochemical purity >95%.

[2] = test system: human prostate carcinoma PC-3 cells; design: method as in PMID 15671538; settings: ^125I-DUP-1, 'has been shown to be'; earlier work; cited from earlier work
PC-3 tumors [3] = settings: cited from earlier work; for Tumor binding: iodinated native ligand
Procedure: A linear peptide with affinity for prostate carcinoma was identified in our group using phage display techniques. The peptide, […], was isolated on prostate-specific membrane antigen-negative cells and evaluated both in vitro and in vivo. Chemical synthesized […] was tested for binding affinity, specificity, kinetics and internalization. In vivo tumor accumulation and organ distribution was evaluated in a nude mouse model, carrying subcutaneously human prostate carcinoma cells. […] A possible explanation for the rapid clearance is the higher polarity of the DOTA conjugate.

[4] = native DUP-1, not among the peptides tested here; earlier work; cited from earlier work
human serum = settings: 37 °C, up to 6 hours
[5] = test system: human prostate carcinoma PC-3 cells; format: binding; settings: for Binding inhibition by unlabeled DUP-1: ^125I-labeled ligand on PC-3 cells, competitor unlabeled DUP-1 at 10^-4 M
Procedure: The human prostate carcinoma cell line PC-3 (American Type Culture Collection, Manassas, VA, USA) was cultivated at 37 °C in a 5% CO2 incubator in RPMI 1640 with Glutamax containing 10% FCS (Invitrogen, Karlsruhe, Germany) and 25 mmol/L HEPES.
200,000 cells were seeded in 6-well plates and cultivated for 24 hours. The medium was replaced by 1 mL fresh medium (without FCS). ^125I-labeled or ^111In-labeled peptide was added to the cell culture (1–2 × 10^6 cpm per well) and incubated for various time periods. Thereafter, the cells were washed thrice with 1 mL phosphate buffer saline (PBS) and subsequently lysed with 0.3 mol/L NaOH (0.5 mL). Radioactivity was measured with a γ-counter and calculated as percentage applied dose per 10^6 cells. For competition experiments co-incubation was performed with the unlabeled peptide at a defined concentration. If BSA or dry milk powder was used as blocking agents, it was added to a final concentration of 1% in medium without FCS.

in vivo = settings: male, BALB/c nu/nu, mouse, iv, total radioactivity; for tissue to tissue ratio at 0.25 h / tissue to tissue ratio at 1 h: Tumor-to-organ ratio
Procedure: (§1) Male 6-week-old BALB/c nu/nu mice were obtained from Charles River WIGA (Sulzfeld, Germany) and housed in VentiRacks. For inoculation of the tumors, a Matrigel matrix/cell (5 × 10^6 cells) suspension was injected subcutaneously into the flank of the animals. Tumors were grown up to a size of ~1.0 cm^3. ^111In-labeled or ^131I-labeled peptide was injected via the tail vein into the animals, carrying PC-3 prostate tumors. At defined time points post injection, the mice were sacrificed. Tumor, blood and selected tissues (heart, lung, spleen, liver, kidney, muscle, intestinum and brain) were removed, drained of blood, weighed, and the radioactivity was measured with a γ-counter (LB 951G, Berthold Technologies). The percentage injected dose per gram of tissue (%ID/g) was calculated. All animal experiments were carried out in conformity with the German law for protection of animals and are in compliance with European laws.

PC-3 tumors [6] = assay: in vivo; settings: mouse
Procedure: as §1

[7] = ^125I-labeled fragments, PC-3 cells, after binding saturation
[8] = PC-3 cells, after 10 min incubation
[9] = PC-3 cells, after 60 min incubation

For FRPNRAQDYNTN [DUP-1], the “Incubation time to maximal radioligand binding / binding saturation” value ([1]; PC-3 cells) is listed as 5 min, the “Binding, percentage applied dose per 10^6 cells” value ([1]; PC-3 cells, radiolabeled peptide, maximal binding) is listed as “about 12 % applied dose per 10^6 cells” and the IC50 [2] is listed as 0.177 µM. The Tumor binding (PC-3 tumors [3]; 15 min circulation in mice) was “about 7%”, the Tumor binding (PC-3 tumors [3]; 45 min circulation in mice) was “about 4%” and the Kidney radioactivity (PC-3 tumors [3]; iodinated peptide, 15 min) was “about 8 % ID/g”. The “Increase of radioligand-binding in the prostate tumor compared to normal prostate tissue” value (PC-3 tumors [3]; organ distribution, nude mouse model) was “up to 300%” and the Serum half life [4] was 2 min.
With “H-FRPNRAQDYNTNK(DOTA)-NH2 (SMILES C[C@H](NC(=O)[C@H](CCCNC(=N)N)NC(=O)[C@H](CC(N)=O)NC(=O)[C@@H]1CCCN1C(=O)[C@H](CCCNC(=N)N)NC(=O)[C@@H](N)Cc1ccccc1)C(=O)N[C@@H](CCC(N)=O)C(=O)N[C@@H](CC(=O)O)C(=O)N[C@@H](Cc1ccc(O)cc1)C(=O)N[C@@H](CC(N)=O)C(=O)N[C@H](C(=O)N[C@@H](CC(N)=O)C(=O)N[C@@H](CCCCNC(=O)CN1CCN(CC(=O)O)CCN(CC(=O)O)CCN(CC(=O)O)CC1)C(N)=O)[C@@H](C)O)” the cleaved bond (human serum) was “phenylalanine1-R2, first_seen, 5 min”.
With FRPNRAY [DUP-1-6-Y] the “Binding as % of the leader peptide DUP-1” value [1] was “about 82%”.
`C[C@H](NC(=O)[C@H](CCCNC(=N)N)NC(=O)[C@H](CC(N)=O)NC(=O)[C@@H]1CCCN1C(=O)[C@H](CCCNC(=N)N)NC(=O)[C@@H](N)Cc1ccccc1)C(=O)N[C@@H](CCC(N)=O)C(=O)N[C@@H](CC(=O)O)C(=O)N[C@@H](Cc1ccc(O)cc1)C(=O)N[C@@H](CC(N)=O)C(=O)N[C@H](C(=O)N[C@@H](CC(N)=O)C(=O)N[C@@H](CCCCNC(=O)CN1CCN(CC(=O)O)CCN(CC(=O)O)CCN(CC(=O)O)CC1)C(N)=O)[C@@H](C)O` (111In complex, metal not drawn) [DOTA-Lys-DUP-1] (H-FRPNRAQDYNTNK(DOTA)-NH2) showed an IC50 ([5]; 24 h) of 3.3 µM, a tissue uptake at 0.25 h (in vivo) of 2.1 %ID/g and a tissue uptake at 1 h (in vivo) of 0.14 %ID/g. The tissue to tissue ratio at 0.25 h (in vivo; Blood) was 0.79 ± 0.198, the tissue to tissue ratio at 1 h (in vivo; Blood) was 3.45 ± 0.261 and the tissue to tissue ratio at 0.25 h (in vivo; Brain) was 18.6 ± 4.05. It also gave a tissue to tissue ratio at 1 h (in vivo; Brain) of 14.8 ± 4.73, a tissue to tissue ratio at 0.25 h (in vivo; Heart) of 1.99 ± 0.459 and a tissue to tissue ratio at 1 h (in vivo; Heart) of 7.79 ± 0.578. It also gave a tissue to tissue ratio at 0.25 h (in vivo; Intestine) of 2.46 ± 0.391, a tissue to tissue ratio at 1 h (in vivo; Intestine) of 4.79 ± 2.13 and a tissue to tissue ratio at 0.25 h (in vivo; Kidney) of 0.124 ± 0.028. The tissue to tissue ratio at 1 h (in vivo; Kidney) was 0.063 ± 0.012, the tissue to tissue ratio at 0.25 h (in vivo; Liver) was 2.35 ± 0.196 and the tissue to tissue ratio at 1 h (in vivo; Liver) was 3.81 ± 0.07. For the same compound, the tissue to tissue ratio at 0.25 h (in vivo; Lung) was 0.823 ± 0.167, the tissue to tissue ratio at 1 h (in vivo; Lung) was 2.9 ± 0.142 and the tissue to tissue ratio at 0.25 h (in vivo; Muscle) was 3.39 ± 0.833. For the same compound, the tissue to tissue ratio at 1 h (in vivo; Muscle) was 8.05 ± 6.85, the tissue to tissue ratio at 0.25 h (in vivo; Spleen) was 3.02 ± 0.793 and the tissue to tissue ratio at 1 h (in vivo; Spleen) was 5.71 ± 1.09. The tissue to tissue ratio at 0.25 h (in vivo; Tumor) was 1 and the tissue to tissue ratio at 1 h (in vivo; Tumor) was 1.
For QDYNTN [DUP-7-12], the “Binding as % of the leader peptide DUP-1” value [1, 7] was “reduced binding capacity to the background level”.
In the case of fRPNRAQDYNTN [dPhe-DUP-1], the “Binding inhibition by unlabeled DUP-1” value [5] is reported as “up to 94%”, the “Incubation time to maximal radioligand binding / binding saturation” value ([1]; PC-3 cells) is reported as 60 min and the “In vitro binding capacity relative to DUP-1” value ([1]; PC-3 cells, summary in discussion, incubation time not printed at place) is reported as “about 25%”. For the same compound, the “Binding as % of the native molecule (DUP-1) capacity” value (from here on “Binding as % of the native molecule”) [1, 8] was “about 8.5%” and the “Binding as % of the native molecule” value [1, 9] was “about 25%”.
For NRAQDY [DUP-4-9], the IC50 ([5]; ^125I-labeled DUP-4-9 on PC-3 cells, unlabeled peptide as competitor, read-out: IC50) was 3.5 µM, the “Binding inhibition by unlabeled DUP-1” value [5] was “about 99%” and the Activity in kidneys (PC-3 tumors [6]) was 15.48 % ID/g. The Radioactivity in blood (PC-3 tumors [6]) was “about 5.5 % ID/g”, the “Incubation time to maximal radioligand binding / binding saturation” value ([1]; PC-3 cells) was 30 min and the “Binding as % of the leader peptide DUP-1” value [1, 7] was “about 70%”.
In the case of C-FRPNRAQDYNTN-C (disulfide) [cDUPc], the “Binding inhibition by unlabeled DUP-1” value [5] is reported as “up to 90%”, the “Incubation time to maximal radioligand binding / binding saturation” value ([1]; PC-3 cells) is reported as 60 min and the “Binding as % of the native molecule” value [1, 8] is reported as “about 7%”. The “Binding as % of the native molecule” value [1, 9] was “about 19%”.
